What was measured:
HSP90 = details: sulforaphane 20 μM
Method: (§1) LNCaP and VCaP cells were grown according to ATCC instructions. Sulforaphane (SFN, #S4441 Sigma, St. Louis, Mo.) was re-suspended in DMSO. Vehicle-treated cells received the respective vehicle controls Immunoprecipitations were carried out after treatment with sulforaphane (20 μM) or vehicle for 4 hours followed by a Western blot for HSP90 and AR. Enrichment was quantified for each immunoprecipitation. Inputs were probed with the indicated antibodies by Western blot and were quantified.
(§2) Immunoprecipitation and immunoblotting were performed as described (Qian et al., Clin. Cancer Res. 12:634-42, 2006). The following antibodies used in immunoblotting or immunoprecipitations (indicated dilutions are for immunoblotting): AR (1:1000, #06-680 Upstate, Billerica, Mass.); acetylated lysine (#05-515 Upstate, Billerica, Mass.); acetylated tubulin (1:2000, #T6793 Sigma, St. Louis, Mo.); alpha-tubulin (1:10,000, #T6074 Sigma, St. Louis, Mo.); beta-actin (1:5000, #A5441 Sigma, St. Louis, Mo.); ERG-1/2/3, (1:5000, #sc-354X Santa Cruz, Santa Cruz, Calif.); FLAG epitope (#F7425 Sigma, St. Louis, Mo.); GAPDH (1:5000, #sc-32233 Santa Cruz, Santa Cruz, Calif.); HDAC6 (1:1000, #sc-11420 Santa Cruz); HSP90 (1:1000, #SPA-840 Stressgen, Ann Arbor, Mich.); mouse IgG (#sc-2025 Santa Cruz, Santa Cruz, Calif.). The following secondary antibodies were used: ECL-conjugated anti-mouse IgG, (1:5000, #A6782 Sigma, St. Louis, Mo.); ECL-conjugated anti-rabbit IgG (1:3000, #NA934 Amersham, Piscataway, N.J. or 1:10,000, #sc-2004 Santa Cruz, Santa Cruz, Calif.). X-ray exposures were scanned as uncompressed images and bands were quantified by densitometry with Quantity One software (Bio-Rad, Hercules, Calif.). Intensity values were normalized to those of the endogenous controls. The vehicle sample was set to 1. Enrichment was calculated as: (intensity IP/intensity input)/(intensity IgG/intensity input) or intensity IP/input (FIG. 1B).

HSP90 and AR = test system: HSP90 and AR
Method: as §1, §2

HDAC6 = details: LNCaP cells; sulforaphane versus vehicle
Method: (§3) All samples were run in triplicate. The vehicle-treated sample was set to 1.
LNCaP cells were transiently transfected with pCDNA3.1 empty vector (Invitrogen, Carlsbad, Calif.) or FLAG-tagged HDAC6 expression vector (Addgene, Cambridge, Mass.) using Lipofectamine LTX and Plus reagents (Invitrogen, Carlsbad, Calif.). Forty-eight hours later, media was replaced for a 16-hour treatment with […] sulforaphane or vehicle. Levels of FLAG, HDAC6, AR, acetylated alpha-tubulin, and actin were measured by Western blot.

AR [1] = assay: Real-time PCR of AR gene expression, LNCaP cells; format: cell-based
Excerpt: as §3

AR [2] = assay: Western blot of AR protein levels, LNCaP cells; format: cell-based
Method: as §2
LNCaP cells were treated with sulforaphane in a dose-response (5 μM to 20 μM) and time-course (12 and 24 hours) manner to investigate the effect of HDAC6 inhibition on AR protein levels. Western blotting was performed as described in Example 1. […]

AR [3] = assay: Real-time PCR of AR gene expression, VCaP cells; format: cell-based
Excerpt: as §3

AR [4] = assay: Western blot of AR protein levels, VCaP cells; format: cell-based; details: 24 hours
PSA and TMPRSS2-ERG = details: VCaP cells; 24 hours; increasing doses; vehicle set to 1
Method: To determine the functional consequences of sulforaphane-mediated reduction in AR protein levels, real-time PCR was conducted for several AR target genes, including PSA and the TMPRSS2-ERG gene fusion present in VCaP cells (FIGS. 5A-C). Cells were lysed in Trizol (Invitrogen, Carlsbad, Calif.) and then purified with the RNAEasy Kit (Qiagen, Valencia, Calif.). One μg of RNA was reverse-transcribed using the Omniscript RT kit (Qiagen, Valencia, Calif.). Real-time PCR primer sequences and conditions were as follows.
The real-time PCR program consisted of: 50° C. for 2 minutes for 1 cycle; 95° C. for 10 minutes for 1 cycle; 95° C. for 15 seconds and 60° C. for 15 seconds for a total of 40 cycles. Standard curves were generated by measuring expression of target genes and 18S rRNA in serial dilutions of a mock-treated control. All samples were run in triplicate. The vehicle-treated sample was set to 1.

ERG = details: VCaP cells; 20 μM sulforaphane, 24 hours; treated in parallel with ChIP
Method: as §2, with “The vehicle sample was set to 1.” left out

AR [5] = assay: Western blot of AR protein levels, LNCaP cells; format: cell-based; remark: listed apart in the source
[6] = 4 hour treatment, vehicle versus sulforaphane

Structure (SMILES): C[S+]([O-])CCCCN=C=S (stereo not drawn) [sulforaphane, 1-Isothiocyanato-4-methylsulfinylbutane]
- enrichment of acetylated lysines on the HSP90 protein (HSP90; LNCaP cells, four hours, versus vehicle-treated cells): increased enrichment of acetylated lysines on the HSP90 protein
- levels of HSP90 in input whole cell lysate (HSP90; 4 hours, versus vehicle): similar
- interaction between HSP90 and AR (HSP90 and AR; 4 hour sulforaphane treatment, as opposed to vehicle): disrupted
- Levels of acetylation of the AR (HSP90 and AR; [6]): similar
- HDAC6 transcript levels (HDAC6): reduce HDAC6 transcript levels
- AR transcript levels at highest dose (AR [1]; 20 μM): declined
- AR transcripts (AR [1]; increasing doses of sulforaphane, or TSA, vehicle set to 1): not consistently suppressed
- AR steady state level with simultaneous MG132 treatment (AR [2]; 24 hours, sulforaphane 20 μM or 300 nM TSA with 10 μM MG132): restored the AR steady state level close to that seen in the vehicle-treated control
- AR protein in the absence of MG132 (AR [2]; 24 hours, sulforaphane 20 μM or 300 nM TSA, versus vehicle-treated cells): dramatic reductions
- AR protein levels at 24 hours (AR [2]; sulforaphane 15 μM and 20 μM, TSA): persisted
- AR transcript levels at highest doses (AR [3]; 15-20 μM): declined
- AR transcripts (AR [3]; 24 hours, increasing doses of sulforaphane, or TSA, vehicle set to 1): not consistently suppressed
- levels of AR protein in whole cell lysates (AR [4]; 20 μM sulforaphane, treated in parallel with ChIP): near absent levels
- AR protein levels (AR [4]; all sulforaphane dose levels): declined
- AR target gene expression (PSA, TMPRSS2-ERG) (PSA and TMPRSS2-ERG): dose-dependent reduction
- levels of ERG protein in whole cell lysates (ERG): near absent levels
- levels of AR in input whole cell lysate (AR [5]; [6]): similar
- AR protein depletion in HDAC6-over-expressing cells (AR [5]; FLAG-HDAC6 transfected LNCaP cells, sulforaphane-treated, versus empty-vector, sulforaphane-treated cells): attenuated
- AR protein levels (AR [5]; LNCaP cells, 12 hours, highest doses tested (10-20 μM)): decreased
- onset of AR protein decline (AR [5]; after sulforaphane treatment): 6 to 12 h
- AR protein (AR [5]; empty-vector transfected LNCaP cells, 16-hour treatment with 15 nM sulforaphane versus vehicle): decreased
